Square brackets hold non-standard residues; d marks the D form. Peptide text beside a SMILES is read from it. pS = N[C@@H](COP(=O)(O)O)C(=O)O
Key:
[1] = target: T1, GST-TMEM97 (108-176) (Homo sapiens, UniProt Q5BJF2); assay: Surface plasmon resonance, immobilized GST-TMEM97 (108-176); format: binding; settings: for % Rmax: SPR
T1 construct: GST-TMEM97 (108-176, recombinant GST-C terminal from wheat germ); purchased Abnova (Taipei City, Taiwan); host or cells: wheat germ (cell-free)
Method: Surface Plasmon Resonance (SPR). Recombinant full-length TMEM97 (also called MAC30, from HEK293 cells) and GST-TMEM97 (108-176, recombinant GST-C terminal from wheat germ) proteins were purchased from OriGene (Rockville, Md.) and Abnova (Taipei City, Taiwan), respectively. Three peptides, TMEM97 (108-176), TMEM97 (108-143) and TMEM97 (144-176), were synthesized. All proteins and peptides were initially prepared in HBS buffer containing 10 mM HEPES, pH 7.4, 150 mM NaCl, and 0.05% surfactant P20. The CM5 sensor surface was first activated by 1-ethyl-3-(3-dimethylaminopropyl) carbodiimide hydrochloride (EDC)/N-hydroxy succinimide (NHS) mixture using a Biacore T200 or Biacore 8K instrument (GE Healthcare). […] Flow channels 1 and 3 were used as references.
The three synthesized peptides were diluted to 50 μg/mL in 10 mM sodium acetate at pH 4.0 and immobilized to flow channels 2, 3 and 4, respectively, on another sensor chip. The unmodified surfaces on a flow channel 1 were used as a reference control. Histatin solutions with a series of increasing concentrations (0.78-25 μM at 2-fold dilution) were applied to all four channels at a 30 μL/minute flow rate at 25° C. The data were double-referenced with reference channel and zero concentration responses, and reference subtracted sensorgrams were fitted with 1 to 1 Langmuir kinetic model using a Biacore T200 evaluation software V3.0 or Insight evaluation software. The equilibrium dissociation constants ([…]) were determined from two rate constants (KD=kd/ka).
To determine the region(s) of Hst1 that mediate binding to TMEM97, SPR testing was performed with various Hst1 fragments and either recombinant TMEM97 (GST-tagged, wheat-germ derived, C-terminal fragment TMEM97 (108-176)) or synthesized TMEM97 (TMEM97 (108-176), TMEM97 (108-143) and TMEM97 (144-176)).

[2] = target: T2, TMEM97 (108-176) (Homo sapiens, UniProt Q5BJF2); assay: Isothermal titration calorimetry, TMEM97 (108-176); format: binding; settings: ITC
T2 construct: Three peptides, TMEM97 (108-176), TMEM97 (108-143) and TMEM97 (144-176), were synthesized; made in house; host or cells: chemical solid-phase synthesis (Fmoc, Wang resin)
T2 sequence (Q5BJF2 108-176): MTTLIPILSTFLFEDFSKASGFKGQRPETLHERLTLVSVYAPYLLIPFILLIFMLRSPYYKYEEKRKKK
Method: Isothermal Titration Calorimetry (ITC). The three synthesized peptides, TMEM97 (108-176), TMEM97 (108-143) and TMEM97 (144-176) were prepared in ITC buffer (10 mM Tris, pH 7.4, 150 mM NaCl, 0.05% polysorbate 20) at 40 μM concentration and placed in the sample cell. All ITC experiments were performed while stirring at 395 rpm, in ITC buffer at 25° C. using a VP-ITC titration microcalorimeter from MicroCal™, LLC (Northampton, Mass.). The microsyringe was loaded with a Histatin 1 solution (500 μM in ITC buffer). All titrations were conducted using an initial injection of 2.5 μL followed by 35 identical injections of 5 μL with a duration of 16 seconds (per injection) and a spacing of 210 seconds between injections. The buffer control titration (Histatin 1 into buffer) signals were subtracted from the experimental data. The collected data were evaluated using NITPIC (NIH), SEDPHAT (NIH), and GUSSI (NIH).
To determine more precisely which segment of TMEM97 is necessary for binding of Hst1, multiple synthetic fragments of TMEM97 were generated (Table 6) and binding to Hst1 was tested using SPR. […] Smaller fragments of the C-terminal of TMEM97 were then constructed to represent the (predicted) luminal (108-143) and cytoplasmic (144-176) exposed segments of the C-terminus of TMEM97 based on modeling experiments previously described. […]

[3] = system: NPC1 patient fibroblasts; assay: Gene expression in NPC1 patient fibroblasts; format: cell-based, human
[4] = system: NPC knockout fibroblasts (NPC1−/−); assay: Filipin and LAMP1 staining in NPC knockout fibroblasts; format: cell-based, human
Method: In addition, cholesterol accumulation in wild type human skin fibroblasts or NPC knockout fibroblasts (NPC1^−/−) were evaluated with or without Hst1 treatment. […] Additionally, LAMP1 lysosomal marker accumulation in untreated NPC1^−/− cells were normalized with Hst1 treatment.

T1 sequence (Q5BJF2 108-176): as above

CC(C)C[C@H](NC(=O)[C@H](Cc1ccc(O)cc1)NC(=O)[C@H](CC(N)=O)NC(=O)[C@H](CO)NC(=O)CNC(=O)[C@H](Cc1ccc(O)cc1)NC(=O)[C@H](CC(=O)O)NC(=O)CNC(=O)[C@H](Cc1ccc(O)cc1)NC(=O)[C@H](Cc1ccccc1)NC(=O)[C@@H]1CCCN1C(=O)[C@H](Cc1ccccc1)NC(=O)[C@H](CCC(=O)O)NC(=O)[C@H](CCCNC(=N)N)NC(=O)[C@H](Cc1c[nH]cn1)NC(=O)[C@H](CO)NC(=O)[C@H](Cc1c[nH]cn1)NC(=O)[C@H](Cc1c[nH]cn1)NC(=O)[C@H](CCCCN)NC(=O)[C@H](CCC(=O)O)NC(=O)[C@H](Cc1c[nH]cn1)NC(=O)[C@H](Cc1ccccc1)NC(=O)[C@H](CCCCN)NC(=O)[C@H](CCCNC(=N)N)NC(=O)[C@H](CCCNC(=N)N)NC(=O)[C@H](Cc1ccc(O)cc1)NC(=O)CNC(=O)[C@H](Cc1c[nH]cn1)NC(=O)[C@H](Cc1c[nH]cn1)NC(=O)[C@H](CCCNC(=N)N)NC(=O)[C@H](CCCCN)NC(=O)[C@H](CCC(=O)O)NC(=O)[C@H](Cc1c[nH]cn1)NC(=O)[C@H](COP(=O)(O)O)NC(=O)[C@@H](N)CC(=O)O)C(=O)N[C@@H](Cc1ccc(O)cc1)C(=O)N[C@@H](CC(=O)O)C(=O)N[C@@H](CC(N)=O)C(=O)O [Hst1] (H-D[pS]HEKRHHGYRRKFHEKHHSHREFPFYGDYGSNYLYDN-OH; N-terminus and C-terminus assumed)
% Rmax [1]: 43%
% Rmax ([1]; listed as Hst1(1-38)): (% Rmax = 23%)
effect of added DTG or haloperidol on Hst1 binding ([1]; addition of either DTG or haloperidol): did not affect
ΔS [2]: 11.6±3.4 cal/mol K
Kd ([2]; 25° C.): 890 ± 200 nM
HMG-CoA reductase gene expression [3]: reducing HMG-CoA reductase gene expression
NPC1 gene expression [3]: increasing NPC1 gene expression
LAMP1 lysosomal marker accumulation [4]: normalized
cholesterol accumulation (Filipin stained cells) [4]: reduction in cholesterol accumulation
